Test systems include SK-MEL-2; SN12C; MOLT-4; A498; RPMI-8226; CCRF-CEM; OVCAR-8; UACC-257; SK-OV-3; COLO 205; NCI-H23; DU-145; SK-MEL-28; SNB-19; SK-MEL-5; OVCAR-3; HCC 2998; MDA-MB-435; SW-620; OVCAR-5.
What all share (assay): NCI tumour cell line growth inhibition, 48 h

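The compound was tested at five concentrations on cells cultured in 96-well plates, with a 48-hour exposure period. Abbreviation: GI50, concentration required for 50% inhibition of growth.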 Activity calls are given as the source filed them. Rule as the data show it: active = GI50 up to about 1.1 µM and inactive = higher.

Consider `COc1cc(/C=C2\C(=O)N(c3ccc(NC(C)=O)cc3)C(c3ccccc3)S2(=O)=O)cc(OC)c1OC` (configuration not stated), for which the GI50 with SK-MEL-2 was > 100 µM (inactive); with SN12C, > 100 µM (inactive); with MOLT-4, 25.1 µM (inactive); in the test with A498, > 100 µM (inactive); in the test on RPMI-8226, 60.8 µM (inactive); in the test with CCRF-CEM, 44.5 µM (inactive). Besides, the GI50 in the test with OVCAR-8, with UACC-257, with SK-OV-3, in the test with COLO 205, in the test with NCI-H23 and in the test with DU-145 was > 100 µM (inactive) in each case. For the same compound, the GI50 was > 100 µM (inactive) with SK-MEL-28; > 100 µM (inactive) in the test on SNB-19; 68.1 µM (inactive) with SK-MEL-5; 93.3 µM (inactive) in the test with OVCAR-3; > 100 µM (inactive) with HCC 2998; 92.9 µM (inactive) in the test on MDA-MB-435. Besides, the GI50 in the test with SW-620 and in the test with OVCAR-5 was > 100 µM (inactive) in each case.

As for `Oc1ccccc1/C=N/c1nc2cc3sc(/N=C/c4ccccc4O)nc3cc2s1`, the GI50 is > 100 µM (inactive) in the test on SK-MEL-2; > 60.5 µM (inactive) in the test on SN12C; 0.889 µM (active) in the test with MOLT-4; 26.3 µM (inactive) with A498; > 35.3 µM (inactive) in the test on RPMI-8226; 4.74 µM (inactive) in the test on CCRF-CEM. In addition, the GI50 was > 100 µM (inactive) in the test on OVCAR-8; > 100 µM (inactive) in the test with UACC-257; > 89.3 µM (inactive) in the test with SK-OV-3; 3.3 µM (inactive) in the test on COLO 205; 6.21 µM (inactive) in the test on NCI-H23; > 48.6 µM (inactive) in the test on DU-145. For the same compound, the GI50 with SK-MEL-28 is > 100 µM (inactive); with SNB-19, > 100 µM (inactive); with SK-MEL-5 it was > 47.9 µM (inactive); in the test on OVCAR-3, > 100 µM (inactive); in the test with HCC 2998 it was > 100 µM (inactive); with MDA-MB-435 it was > 95.9 µM (inactive). Moreover, the GI50 in the test with SW-620 is 20.7 µM (inactive); with OVCAR-5 it was > 64.7 µM (inactive).

With `CC(=O)OC(C)C1C2=C(C(=O)CC1(C)O)C(=O)c1c(ccc(-c3ccc4c(c3O)C(=O)C3=C(C4=O)C(C(C)OC(C)=O)C(C)(O)CC3=O)c1O)C2=O` (configuration not stated), the GI50 in the test with SK-MEL-2 was 1.75 µM (inactive); in the test with SN12C, 2.82 µM (inactive); in the test with MOLT-4 it was 1.12 µM (inactive); in the test on A498, 2.86 µM (inactive); in the test with RPMI-8226, 0.483 µM (active); in the test with CCRF-CEM, 0.308 µM (active). In addition, the GI50 is 2.45 µM (inactive) with OVCAR-8; 1.75 µM (inactive) in the test with UACC-257; 10.8 µM (inactive) in the test on SK-OV-3; 0.692 µM (active) in the test with COLO 205; 1.47 µM (inactive) in the test with NCI-H23; 5.78 µM (inactive) in the test with DU-145. For the same compound, the GI50 in the test on SK-MEL-28 was 2.12 µM (inactive); with SNB-19, 11.7 µM (inactive); with SK-MEL-5, 3.19 µM (inactive); in the test with OVCAR-3, 2.2 µM (inactive); with HCC 2998, 10.7 µM (inactive); with MDA-MB-435, 2.14 µM (inactive). In addition, the figures for the GI50 in the test with SW-620 and in the test on OVCAR-5 were 0.667 µM (active) and 5.97 µM (inactive), respectively.

For the compound `COc1ccc(C2c3cc4c(cc3OC(N3CCOCC3)C2C)OCO4)c(OC)c1` (configuration not stated), the GI50 in the test with SK-MEL-2 was 4.95 µM (inactive); in the test on SN12C, 10.7 µM (inactive); in the test on MOLT-4, 3.58 µM (inactive); with A498, 4.68 µM (inactive); with RPMI-8226, 3.15 µM (inactive); with CCRF-CEM, 3.5 µM (inactive). Further, the GI50 in the test on OVCAR-8 was 8 µM (inactive); in the test on UACC-257 it was 6.3 µM (inactive); in the test with SK-OV-3, 4.43 µM (inactive); in the test with COLO 205, 9.33 µM (inactive); with NCI-H23 it was 11.9 µM (inactive); with DU-145, 9.89 µM (inactive). The GI50 is 8.49 µM (inactive) in the test on SK-MEL-28; 4.36 µM (inactive) with SNB-19; 2.81 µM (inactive) in the test with SK-MEL-5; 3.48 µM (inactive) with OVCAR-3; 4.17 µM (inactive) in the test on HCC 2998; 2.14 µM (inactive) in the test on MDA-MB-435. Besides, the GI50 was 3.72 µM (inactive) in the test with SW-620 and 19.1 µM (inactive) with OVCAR-5.

In the case of `O=C(/C=C/c1ccc(O)c(O)c1)NC(COC(=O)/C=C/c1ccc(O)c(O)c1)C(=O)O` (configuration not stated), the GI50 in the test on SK-MEL-2 was > 100 µM (inactive); with SN12C it was > 100 µM (inactive); in the test on MOLT-4, > 100 µM (inactive); with A498, > 100 µM (inactive); in the test with RPMI-8226, > 100 µM (inactive); with CCRF-CEM, 37.8 µM (inactive). Moreover, the GI50 in the test on OVCAR-8, in the test with UACC-257, with SK-OV-3, with COLO 205, in the test on NCI-H23 and with DU-145 was > 100 µM (inactive) in each case. Moreover, the GI50 with SK-MEL-28, with SNB-19, with SK-MEL-5, in the test with OVCAR-3, with HCC 2998 and in the test with MDA-MB-435 was > 100 µM (inactive) each time. Besides, the GI50 with SW-620 and in the test on OVCAR-5 was > 100 µM (inactive) in each case.

For the compound `CC1(C)CCCCCC(C)(CCCCCCCCCCCO)C1=O` (configuration not stated), the GI50 is 16.2 µM (inactive) in the test with SK-MEL-2; 16.1 µM (inactive) in the test with SN12C; 19.5 µM (inactive) with MOLT-4; 17.9 µM (inactive) with A498; 20.9 µM (inactive) with RPMI-8226; 13 µM (inactive) in the test with CCRF-CEM. Also, the GI50 in the test on OVCAR-8 is 16.9 µM (inactive); with UACC-257 it was 14 µM (inactive); with SK-OV-3 it was 17.6 µM (inactive); in the test on COLO 205 it was 17.1 µM (inactive); in the test with NCI-H23, 16.6 µM (inactive); in the test on DU-145, 17.7 µM (inactive). In addition, the GI50 with SK-MEL-28 was 17.9 µM (inactive); in the test with SNB-19, 17.2 µM (inactive); with SK-MEL-5, 16.7 µM (inactive); with OVCAR-3, 16 µM (inactive); with HCC 2998 it was 24.3 µM (inactive); in the test with MDA-MB-435 it was 16.6 µM (inactive). Further, the GI50 is 18.4 µM (inactive) with SW-620 and 17.2 µM (inactive) with OVCAR-5.

Take `C=C(Cl)C(Cl)(CBr)CCCC(C)(C)Cl` (configuration not stated): the GI50 in the test with SK-MEL-2 is 11.4 µM (inactive); in the test with SN12C, 60.8 µM (inactive); in the test with MOLT-4, > 55.6 µM (inactive); with A498, 19.8 µM (inactive); in the test on RPMI-8226, 1.28 µM (inactive); in the test with CCRF-CEM it was > 33.7 µM (inactive). The GI50 with OVCAR-8 was 18.7 µM (inactive); with UACC-257 it was 3.15 µM (inactive); in the test on SK-OV-3 it was > 100 µM (inactive); in the test on COLO 205, 7.5 µM (inactive); in the test on NCI-H23 it was 45 µM (inactive); with DU-145, 10.9 µM (inactive). For the same compound, the GI50 in the test on SK-MEL-28 was 11.7 µM (inactive); with SNB-19, 14.7 µM (inactive); in the test on SK-MEL-5, 29.9 µM (inactive); in the test on OVCAR-3 it was 2.47 µM (inactive); with HCC 2998, 15.9 µM (inactive); in the test on MDA-MB-435 it was 27.2 µM (inactive). Further, the GI50 in the test on SW-620 is 20.4 µM (inactive); in the test with OVCAR-5 it was 18.4 µM (inactive).

For the compound `O=C1C2=Cc3ccccc3OC2(O)Oc2cc(O)ccc21` (configuration not stated), the GI50 is > 100 µM (inactive) in the test with SK-MEL-2; > 100 µM (inactive) in the test on SN12C; > 100 µM (inactive) in the test with MOLT-4; > 100 µM (inactive) in the test on A498; > 100 µM (inactive) with RPMI-8226; 27.5 µM (inactive) with CCRF-CEM. The GI50 with OVCAR-8, in the test with UACC-257, in the test with SK-OV-3, with COLO 205, with NCI-H23 and in the test on DU-145 was > 100 µM (inactive) throughout. In addition, the GI50 with SK-MEL-28, in the test on SK-MEL-5, with OVCAR-3, with HCC 2998, in the test with MDA-MB-435 and in the test with SW-620 was > 100 µM (inactive) each time. The GI50 in the test on OVCAR-5 is > 100 µM (inactive).

As for `CC(=O)O[C@@]12CO[C@@H]1C[C@@H](O)[C@@]1(C)C(=O)[C@H](O)C3=C(C)[C@@H](OC(=O)[C@H](O)[C@@H](NC(=O)c4ccccc4)c4ccccc4)C[C@@](O)([C@@H](OC(=O)c4ccccc4)C12)C3(C)C` (some centres not stated), the GI50 is < 0.01 µM (active) in the test on SK-MEL-2; 0.0184 µM (active) with SN12C; < 0.01 µM (active) in the test on MOLT-4; 0.213 µM (active) in the test on A498; < 0.01 µM (active) in the test on RPMI-8226; 0.0103 µM (active) in the test with CCRF-CEM. The GI50 in the test with OVCAR-8 is 0.0803 µM (active); with UACC-257, 0.0217 µM (active); in the test with SK-OV-3, 0.026 µM (active); in the test on COLO 205 it was < 0.01 µM (active); in the test with NCI-H23 it was 0.0379 µM (active); with DU-145, 0.0301 µM (active). For the same compound, the GI50 is 0.748 µM (active) in the test on SK-MEL-28; 0.185 µM (active) in the test with SNB-19; < 0.0162 µM (active) in the test on OVCAR-3; 0.0212 µM (active) in the test on HCC 2998; < 0.01 µM (active) in the test on MDA-MB-435; < 0.01 µM (active) with SW-620. Also, in the test on OVCAR-5, the GI50 was 0.0832 µM (active).

Take `Cc1ccc(Cl)c2[nH]c(-c3ccccc3)cc(=O)c12`: the GI50 was 65.6 µM (inactive) in the test with SK-MEL-2; 46.5 µM (inactive) with SN12C; 21.6 µM (inactive) with MOLT-4; 25.6 µM (inactive) in the test with A498; 36.1 µM (inactive) in the test on RPMI-8226; 38.5 µM (inactive) in the test with CCRF-CEM. For the same compound, the GI50 is 50.9 µM (inactive) with OVCAR-8; 40.9 µM (inactive) with UACC-257; > 100 µM (inactive) with SK-OV-3; 40.9 µM (inactive) in the test on COLO 205; 46.7 µM (inactive) with NCI-H23; 43.7 µM (inactive) in the test on DU-145. Further, the GI50 was 39.7 µM (inactive) in the test with SK-MEL-28; 15.8 µM (inactive) in the test on SK-MEL-5; 36.1 µM (inactive) with OVCAR-3; 93.1 µM (inactive) in the test on HCC 2998; 21.1 µM (inactive) in the test with MDA-MB-435; 39.2 µM (inactive) in the test with SW-620. The GI50 with OVCAR-5 is 76.4 µM (inactive).

Values taken from ChEMBL document CHEMBL1201862, “PubChem BioAssay data set” (2004).
